The subject of one data set is Candida albicans. Briefly: Antifungal activity against Candida albicans MTCC 227 after 24 to 48 hrs by broth microdilution method. The data set is classed as functional.
In the next data set the test system is Aspergillus fumigatus. Briefly: Antifungal activity against Aspergillus fumigatus MTCC 3008 after 24 to 48 hrs by broth microdilution method. The data set is classed as functional. Background: Dilution methods test growth across graded concentrations, often in twofold steps.
A further data set has as its system Plasmodium falciparum. Briefly: Antimalarial activity against Plasmodium falciparum after 48 hrs. The data set is classed as functional, organism-based.
The next data set concerns Clostridium tetani. As to the kind of experiment: Antibacterial activity against Clostridium tetani MTCC 449 after 24 to 48 hrs by broth microdilution method. In kind it is functional.
For a further data set, the system named is Salmonella typhi. Briefly: Antibacterial activity against Salmonella typhi MTCC 98 after 24 to 48 hrs by broth microdilution method. The data set is classed as functional, Salmonella enterica subsp. enterica serovar Typhi. Particulars: Salmonella enterica.
For another data set, the system named is Vibrio cholerae. As to the kind of experiment: Antibacterial activity against Vibrio cholerae MTCC 3906 after 24 to 48 hrs by broth microdilution method. The data set is classed as functional.
A further data set concerns Streptococcus pneumoniae. Briefly: Antibacterial activity against Streptococcus pneumoniae MTCC 1936 after 24 to 48 hrs by broth microdilution method. The data set is classed as functional.
Another data set has as its system Escherichia coli. Briefly: Antibacterial activity against Escherichia coli MTCC 443 after 24 to 48 hrs by broth microdilution method. The data set is classed as functional.
The subject of data set [1] is Mycobacterium tuberculosis. As to the kind of experiment: Antituberculosis activity against Mycobacterium tuberculosis H37Rv after 2 to 4 weeks by Lowensteine-Jensen method. The data set is classed as functional.
In data set [2] the test system is Mycobacterium tuberculosis. Briefly: Antituberculosis activity against Mycobacterium tuberculosis H37Rv at 250 ug/ml incubated for 24 hrs measured after 2 to 4 weeks by Lowensteine-Jensen method. The data set is classed as functional.
A further data set has as its system Bacillus subtilis. Briefly: Antibacterial activity against Bacillus subtilis MTCC 441 after 24 to 48 hrs by broth microdilution method. The data set is classed as functional.
Data set [3] relates to Schizosaccharomyces pombe. Briefly: Cytotoxicity against Schizosaccharomyces pombe at 2.5 to 12.5 ug/ml after 17 hrs by trypan blue exclusion method. In kind it is organism-based. The conditions noted are these: in vivo.

We go through five molecules from ChEMBL document CHEMBL3785013, “Novel morpholinoquinoline nucleus clubbed with pyrazoline scaffolds: Synthesis, antibacterial, antitubercular and antimalarial activities” (Eur J Med Chem, 2016).

In brackets after ≈: the same amount, converted by molar mass. Some results are limits rather than exact numbers.

`O=CN1N=C(c2ccc(Cl)cc2)CC1c1cc2ccccc2nc1N1CCOCC1` (stereo not drawn): the minimum inhibitory concentration (MIC) is 2380 µM (≈ 1000 µg/mL) in the data set on Candida albicans; greater than 2380 µM against Aspergillus fumigatus; 475 µM (≈ 200 µg/mL) in the data set on Clostridium tetani; 1190 µM (≈ 500 µg/mL) against Salmonella typhi; 237 µM (≈ 99.8 µg/mL) in the data set on Vibrio cholerae; 148 µM (≈ 62.3 µg/mL) in the data set on Streptococcus pneumoniae. Moreover, the MIC was 237 µM (≈ 99.8 µg/mL) with Escherichia coli, 59 µM (≈ 24.8 µg/mL) in data set [1] and 1190 µM (≈ 500 µg/mL) against Bacillus subtilis. Inhibition in the data set with Plasmodium falciparum was half-maximal at 28 nM (IC50). Moreover, at 250 µg/mL the inhibition in [2] was 94%. Moreover, the Activity result in [3] was “Toxic”.
For `COc1ccc(C2=NN(c3ccc(F)cc3)C(c3cc4ccccc4nc3N3CCOCC3)C2)cc1` (stereo not drawn), the MIC in the data set with Candida albicans was 518 µM (≈ 250 µg/mL); in the data set on Aspergillus fumigatus, 207 µM (≈ 99.9 µg/mL); in the data set with Clostridium tetani it was 1040 µM (≈ 500 µg/mL); in the data set with Salmonella typhi, 207 µM (≈ 99.9 µg/mL); with Vibrio cholerae it was 518 µM (≈ 250 µg/mL); in the data set with Streptococcus pneumoniae, 259 µM (≈ 125 µg/mL). Also, the MIC was determined as 414 µM (≈ 200 µg/mL) against Escherichia coli and 518 µM (≈ 250 µg/mL) against Bacillus subtilis. This molecule also came in with a concentration for half-maximal inhibition (IC50) in the data set with Plasmodium falciparum of 51 nM. Besides, the inhibition at 250 µg/mL in data set [2] was 33%. For the same molecule, the Activity entry in data set [3] was “Non-toxic”.
As for `Fc1ccc(N2N=C(c3ccc(Br)cc3)CC2c2cc3ccccc3nc2N2CCOCC2)cc1` (stereo not drawn), the MIC in the data set on Candida albicans turned out to be 470 µM (≈ 250 µg/mL); in the data set with Aspergillus fumigatus, 940 µM (≈ 500 µg/mL); in the data set on Clostridium tetani, 188 µM (≈ 99.9 µg/mL); against Salmonella typhi, 376 µM (≈ 200 µg/mL); with Vibrio cholerae it was 470 µM (≈ 250 µg/mL); with Streptococcus pneumoniae, 188 µM (≈ 99.9 µg/mL). In addition, the figures for the MIC (in the data set with Escherichia coli; in [1]; in the data set on Bacillus subtilis) were 117 µM (≈ 62.2 µg/mL), 47 µM (≈ 25 µg/mL) and 940 µM (≈ 500 µg/mL), respectively. Besides, 15 nM corresponded to half-maximal inhibition with Plasmodium falciparum (IC50). Besides, in [2], the inhibition at 250 µg/mL was determined as 95%. Moreover, in [3], the Activity result is “Non-toxic”.
For `COc1ccc(C2=NN(C(C)=O)C(c3cc4ccccc4nc3N3CCOCC3)C2)cc1` (stereo not drawn), the minimal inhibitory concentration (MIC) against Candida albicans turned out to be 2320 µM (≈ 1000 µg/mL); with Aspergillus fumigatus, 1160 µM (≈ 500 µg/mL); against Clostridium tetani it was 1160 µM (≈ 500 µg/mL); against Salmonella typhi, 1160 µM (≈ 500 µg/mL); against Vibrio cholerae, 1160 µM (≈ 500 µg/mL); in the data set with Streptococcus pneumoniae, 145 µM (≈ 62.4 µg/mL). Besides, the MIC against Escherichia coli and in the data set with Bacillus subtilis was 232 µM (≈ 99.9 µg/mL) throughout. In the data set on Plasmodium falciparum, this molecule had an IC50 of 34 nM. The same molecule gave an inhibition at 250 µg/mL in data set [2] of 45%. In addition, the Activity result in data set [3] is “Toxic”.
`NC(=S)N1N=C(c2ccc(Br)cc2)CC1c1cc2ccccc2nc1N1CCOCC1` (stereo not drawn): the MIC in the data set on Candida albicans is greater than 2010 µM; against Aspergillus fumigatus, 1010 µM (≈ 500 µg/mL); in the data set on Clostridium tetani it was 201 µM (≈ 99.8 µg/mL); in the data set with Salmonella typhi it was 402 µM (≈ 200 µg/mL); against Vibrio cholerae, 201 µM (≈ 99.8 µg/mL); in the data set on Streptococcus pneumoniae it was 402 µM (≈ 200 µg/mL). The MIC was 201 µM (≈ 99.8 µg/mL) in the data set on Escherichia coli, 201 µM (≈ 99.8 µg/mL) in [1] and 402 µM (≈ 200 µg/mL) with Bacillus subtilis. This molecule registered a half-maximal inhibitory concentration (IC50) in the data set on Plasmodium falciparum of 44 nM. For the same molecule, the inhibition at 250 µg/mL in data set [2] was 90%. For the same molecule, the Activity result in data set [3] was “Non-toxic”.

The term MIC denotes the lowest concentration found to suppress growth. A low value points to inhibition by little substance. In general, IC50 refers to the point on the concentration scale where inhibition reaches its midpoint. Lower therefore signals greater potency. For orientation: inhibition means the drop in the measured response relative to a control, in per cent. A lower inhibition goes with little suppression.
